{"source": "patent US12297220B2", "about": "“Phenethylamines and cathinones precursors” (Transcend Therapeutics, Inc., priority 2022, dated 2025)", "key": {"[1]": {"test_system": "healthy volunteers", "details": "self-administration; cited from earlier work"}, "[2]": {"test_system": "fear extinction recall", "details": "7.5 mg/kg, 30 minutes prior to extinction training; cited from earlier work"}, "[3]": {"test_system": "rat forced swim test", "assay": "Forced swim test (FST), antidepressant-like activity", "format": "in vivo", "experimental": "The forced swim test (FST) is a classic model to assess the antidepressant-like activity of compounds that has been in use for over 40 years (Porsolt et al. (1977) Nature 266:730-732; Detke et al. (1995) Psychopharmacology 121:66-72). […] A single dose of 5 mg/kg methylone reduces immobility by approximately 50% compared to vehicle-treated controls, whereas a 15 mg/kg dose reduces immobility by nearly 100%. Accompanying changes in climbing and/or swimming behavior reflect noradrenergic and serotonergic activities of methylone, respectively.\nAll FST studies are performed and scored by an experimenter blind to treatment group and according to standard protocols. Briefly, rats are placed in a circular plexiglass container filled with water. Water temperature is maintained at 22-25° C. and changed for every animal. Day 1 (Training) consists of a 15 min acclimation trial, and Day 2 (Testing, 24 h later) consists of the 5 min test. A time sampling procedure is employed where animals are observed every 5 seconds for the duration of the test session (60 counts or 5 minutes) and scored for immobility (defined as the failure to struggle), swimming (defined as a circular movement around the tank), or climbing (defined as an upwards escape behavior). Data are expressed as the percent of the testing session (e.g., the number of immobility counts divided by 60). […]"}, "[4]": {"test_system": "open field test", "details": "cited from earlier work"}, "[5]": {"test_system": "PTSD", "details": "clinical case series of 21 individuals; cited from earlier work"}, "[6]": {"test_system": "mouse model of PTSD", "assay": "Fear extinction recall in a mouse model of PTSD", "format": "in vivo", "details": "30 mg/kg, IP", "experimental": "FIGS. 1A-1D: Methylone improves fear extinction recall in a mouse model of PTSD. (FIG. 1A) Schematic of experimental design. A single CS—US (tone-shock) pairing on day 1 was followed by 6 CS presentations in a novel context (context B). Methylone or saline vehicle was injected 30 min prior to extinction training on day 2. On day 3, the time spent freezing to the CS was quantified. […] (FIG. 1C) The time freezing before vs. during each of 6 cues on day 3 (to control for locomotor effects) are shown. There was a significant cue×drug interaction (F(5, 130)=2.409, p<0.05). […] N=12 for methylone group (30 mg/kg, IP, orange diamonds) and N=16 for saline control group (black squares). *p<0.05\nEffective PTSD treatments facilitate the disassociation between a traumatic memory and the patient's fear response, making cues for the traumatic memory evoke less of a fear response. This is modeled in the mouse fear extinction paradigm which takes place over 3 days. On day 1 (fear conditioning), mice are trained to acquire a “traumatic memory,” namely associating the conditioned stimulus (CS, tone) to the unconditioned stimulus (US, foot shock). On day 2 (extinction training), they are trained to forget the traumatic memory association by presenting the CS 6 times (with no US) in a novel environment. On day 3 (extinction recall), the mice are “asked” if that tone (CS) still elicits a fearful response, as measured by the time spent freezing when the tone is presented. Less time freezing means better extinction recall. Drugs that improve extinction recall reduce freezing time on day 3, and, therefore, show potential as a PTSD treatment.\nUsing these methods, prodrugs are administered to mice and tested for efficacy in the fear extinction model to evaluate their efficacy to treat PTSD and other memory disorders."}, "[7]": {"test_system": "human hepatocytes", "assay": "Prodrug bioactivation / metabolic stability in hepatocytes", "format": "in vitro ADME", "details": "t=60 minutes", "experimental": "(§1) Bioactivation Potential of Prodrug Candidates: After a prodrug is synthesized, its bioactivation potential to release methylone is assessed under in vitro conditions. As the prodrugs are designed to be enzymatically activated by esterases and amidases/peptidases found in the blood and/or the liver, each prodrug is incubated in human and rat whole blood as well as liver hepatocytes. In these assays, the percentage of released parent methylone and of remaining prodrug is measured at different timepoints for a period of 2 hours. A chemical stability assessment of each prodrug is also performed under various pH conditions to ensure that the methylone released is a result of enzymatic hydrolysis. Prodrugs that show in vitro bioactivation are then administered (IV/PO) to rats, and blood samples are collected to assess the pharmacokinetic profile of each prodrug.\nFor example, the metabolic stability of prodrug candidates to release methylone could be assessed in vitro according to the following protocol: cryopreserved human and rat hepatocytes are thawed in recovery media and diluted in plating media to a viable cell density of 1×10^6 cells/mL. Viability is determined by trypan blue exclusion. […] All samples, including analytical standards, are analyzed by LC-MS/MS to measure the concentration of methylone released and the concentration of the corresponding prodrug remaining. […]"}, "[8]": {"assay": "Chemical stability in phosphate buffer without hepatocytes (negative control)", "format": "physicochemical", "details": "phosphate buffer pH 6.8 at 37° C., up to 2 hours", "experimental": "as §1\nWhen compound 50 was incubated with human hepatocytes under the conditions described above, at t=60 minutes, approximately 100% of the prodrug had been converted to methylone with a total recovery of approximately 100%."}}, "data": [{"compound": "CNC(C)Cc1ccc2c(c1)OCO2", "note": "(centres unmarked) [MDMA]", "values": [{"measurement": "systolic and diastolic blood pressure", "setting": "[1]", "value": "significant increase"}, {"measurement": "reduced freezing compared to saline injected controls (extinction recall)", "setting": "[2]", "value": 35, "unit": "%"}]}, {"compound": "CNC(C)C(=O)c1ccc2c(c1)OCO2", "note": "(centres unmarked) [Methylone, methylone]", "values": [{"measurement": "antidepressant-like effect in the rat forced swim test", "setting": "[3]", "value": "robust, dose-dependent antidepressant-like effect"}, {"measurement": "thigmotaxis (time spent hugging the perimeter of the open field)", "setting": "[4]; 5, 10, 20 mg/kg, SC, rats", "value": "reduce thigmotaxis"}, {"measurement": "locomotor activity in the OFT", "setting": "[4]; rat, in vivo", "value": "increases locomotor activity"}, {"measurement": "time spent in the center vs the periphery in the OFT", "setting": "[4]; rat, in vivo", "value": "reduces time spent in the center vs the periphery"}, {"measurement": "patients with improved symptoms of PTSD", "setting": "[5]", "value": 81, "unit": "%"}, {"measurement": "fear extinction recall", "setting": "[6]", "value": "significantly improves fear extinction recall"}, {"measurement": "Freezing time during the first cue on day 3 (extinction recall) compared to saline", "setting": "[6]; 30 min prior to extinction training, p<0.05", "value": "significantly reduced"}, {"measurement": "locomotor changes on day 3", "setting": "[6]; p>0.05", "value": "No locomotor changes were observed"}, {"measurement": "heart rate", "setting": "[1]", "value": "increase in heart rate"}, {"measurement": "systolic and diastolic blood pressure", "setting": "[1]", "value": "significant increase"}]}, {"compound": "CC(OC(=O)C(C)C)OC(=O)N(C)C(C)C(=O)c1ccc2c(c1)OCO2", "note": "(centres unmarked) [compound 50, 1-(((1-(benzo[d][1,3]dioxol-5-yl)-1-oxopropan-2-yl)(methyl)carbamoyl)oxy)ethyl isobutyrate]", "values": [{"measurement": "prodrug converted to methylone", "setting": "[7]", "value": "approximately 100%"}, {"measurement": "release of parent methylone in absence of hepatocytes", "setting": "[8]", "value": "no parent methylone was released"}]}]}
